Consider 9 compounds from patent US11229636B2, “Substituted tetrahydroquinolinone compounds as ROR gamma modulators” (Aurigene Discovery Technologies Limited, priority 2015, dated 2022).

One experiment has as its target RORγ LBD (Homo sapiens (Human), UniProt P51449). In words: ROR gamma radio-ligand binding assay (3H 25-Hydroxycholesterol competitive displacement, dextran charcoal method). The conditions noted are these: for IC50: in range. The method in brief: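 Human RORγ LBD (aa 247–497) was expressed as a GST fusion in E. coli and purified. For binding, 300 ng protein, 5 nM ³H-25-hydroxycholesterol and compound were incubated for 30 min at room temperature in 50 mM HEPES pH 7.5, 150 mM NaCl, 0.01% BSA and 5 mM MgCl2. After dextran-charcoal separation, the supernatant was counted and 10-point curves were fitted by variable-slope sigmoid.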

For experiment [1], the target named is ROR gamma ligand binding domain (Homo sapiens (Human), UniProt P51449). In words: ROR gamma luciferase reporter assay (GAL4-ROR gamma LBD, HEK293 cells). The class given is cell-based. The conditions noted are these: 48 hours treatment, read-out: RORγ luciferase Reporter assay: IC50 (nM) (in range). The method in brief:
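HEK293 cells were co-transfected with a GAL4 DBD–RORγ LBD fusion (hRluc vector) and a 9xGAL4 UAS luc2P reporter, then treated with compounds for 48 h. Bright-Glo luminescence was used to derive potency.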
For orientation: In a reporter assay the amount or activity of a reporter protein is the signal.

Molecules are shown by their SMILES. Some results are limits rather than exact numbers.

ROR gamma ligand binding domain, sequence (P51449 269-508): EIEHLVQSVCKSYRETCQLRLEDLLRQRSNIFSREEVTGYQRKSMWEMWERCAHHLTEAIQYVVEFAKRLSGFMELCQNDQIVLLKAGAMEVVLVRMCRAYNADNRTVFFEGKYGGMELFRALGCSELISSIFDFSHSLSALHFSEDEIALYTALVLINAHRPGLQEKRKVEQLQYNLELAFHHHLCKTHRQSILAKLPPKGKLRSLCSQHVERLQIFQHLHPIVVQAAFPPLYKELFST
RORγ LBD, sequence (P51449 268-518): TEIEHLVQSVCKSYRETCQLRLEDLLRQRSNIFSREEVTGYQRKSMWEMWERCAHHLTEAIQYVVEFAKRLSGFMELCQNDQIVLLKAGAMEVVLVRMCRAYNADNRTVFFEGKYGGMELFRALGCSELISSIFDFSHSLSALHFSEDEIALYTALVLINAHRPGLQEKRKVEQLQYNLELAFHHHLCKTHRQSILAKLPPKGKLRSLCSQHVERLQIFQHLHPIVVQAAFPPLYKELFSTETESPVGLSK

By inhibition is commonly meant the share of the control response that was lost under treatment. Higher therefore signals a response far below the control. In general, IC50 refers to the concentration needed to halve the response being measured. On RORγ LBD (1 μM compound), `CCS(=O)(=O)c1ccc(CC(=O)Nc2ccc3c(n2)CCC(C)(c2nccn4cccc24)C3=O)cc1` (stereo not shown) [Compound 15, 2-(4-(ethylsulfonyl)phenyl)-N-(6-methyl-5-oxo-6-(pyrrolo[1,2-a]pyrazin-1-yl)-5,6,7,8-tetrahydroquinolin-2-yl)acetamide] came in with an inhibition at 1 µM of 95%. The inhibition at 10 µM on RORγ LBD (10 μM compound) stood at 92%. Also, the results for the IC50 (at RORγ LBD; in experiment [1]) were less than 150 nM and less than 100 nM, respectively.

In turn, `CCC1(c2nccn3ccnc23)CCc2nc(NC(=O)Cc3ccc(S(=O)(=O)CC)cc3)ccc2C1=O` (stereo not shown) [Compound 14, N-(6-ethyl-6-(imidazo[1,2-a]pyrazin-8-yl)-5-oxo-5,6,7,8-tetrahydroquinolin-2-yl)-2-(4-(ethylsulfonyl)phenyl)acetamide] gave an inhibition at 1 µM on RORγ LBD (1 μM compound) of 0%. Further, the inhibition at 10 µM at RORγ LBD (10 μM compound) was 26%. The IC50 in experiment [1] is more than 500 nM.

Consider `CCS(=O)(=O)c1ccc(CC(=O)Nc2cc(C)c3c(n2)CCC(C)(c2cc(OC)ccn2)C3=O)cc1` (stereo not shown) [Compound 22, 2-(4-(ethylsulfonyl)phenyl)-N-(6-(4-methoxypyridin-2-yl)-4,6-dimethyl-5-oxo-5,6,7,8-tetrahydroquinolin-2-yl)acetamide], for which the inhibition at 1 µM at RORγ LBD (1 μM compound) is 76%. At RORγ LBD (10 μM compound), this compound showed an inhibition at 10 µM of 95%. Moreover, the IC50 in experiment [1] lay in the range of 100 to 500 nM.

For the compound `CCS(=O)(=O)c1ccc(CC(=O)Nc2cc(C)c3c(n2)CCC(C)(c2ccc(OC)nn2)C3=O)cc1` (stereo not shown) [Compound 31, 2-(4-(ethylsulfonyl)phenyl)-N-(6-(6-methoxypyridazin-3-yl)-4,6-dimethyl-5-oxo-5,6,7,8-tetrahydroquinolin-2-yl)acetamide], testing at 1 µM at RORγ LBD (1 μM compound) gave an inhibition of 90%. In addition, on RORγ LBD (10 μM compound), the inhibition at 10 µM was 88%. The IC50 at RORγ LBD is less than 150 nM; in experiment [1], less than 100 nM.

Regarding `CCS(=O)(=O)c1ccc(CC(=O)Nc2ccc3c(n2)CCC(C)(c2ccc(OC)nn2)C3=O)cc1` (stereo not shown) [Compound 12, 2-(4-(ethylsulfonyl)phenyl)-N-(6-(6-methoxypyridazin-3-yl)-6-methyl-5-oxo-5,6,7,8-tetrahydroquinolin-2-yl)acetamide], the IC50 is less than 150 nM on RORγ LBD and 100 to 500 nM in experiment [1].

Turning to `CCS(=O)(=O)c1ccc(CC(=O)Nc2ccc3c(n2)CCC(C)(c2nccn4cc(C)nc24)C3=O)cc1` (single isomer, unassigned) [Compound-105, 2-(4-(ethylsulfonyl)phenyl)-N-(6-methyl-6-(2-methylimidazo[1,2-a]pyrazin-8-yl)-5-oxo-5,6,7,8-tetrahydroquinolin-2-yl)acetamide], the “RORγ ligand binding assay: % inhibition @1 μM” value on RORγ LBD (1 μM compound) stood at 100%. Moreover, the “RORγ ligand binding assay: % inhibition @ 10 μM” value at RORγ LBD (10 μM compound) is given as 97%. Also, the IC50 at RORγ LBD was less than 150 nM; in experiment [1], less than 100 nM.

Compound `CCS(=O)(=O)c1ccc(CC(=O)Nc2ccc3c(n2)CC(C)C(c2ncccc2O)C3=O)cc1` (stereo not shown) [Compound 91, 2-(4-(ethylsulfonyl)phenyl)-N-(6-(3-hydroxypyridin-2-yl)-7-methyl-5-oxo-5,6,7,8-tetrahydroquinolin-2-yl)acetamide] yielded an inhibition at 1 µM on RORγ LBD (1 μM compound) of 36%. Also, the inhibition at 10 µM at RORγ LBD (10 μM compound) worked out at 100%. Further, the IC50 is more than 300 nM on RORγ LBD and more than 500 nM in experiment [1].

In turn, `CCS(=O)(=O)c1ccc(CC(=O)Nc2cc(C)c3c(n2)CCC(C)(c2nccn4ccnc24)C3=O)cc1` (stereo not shown) [Compound 26, 2-(4-(ethylsulfonyl)phenyl)-N-(6-(imidazo[1,2-a]pyrazin-8-yl)-4,6-dimethyl-5-oxo-5,6,7,8-tetrahydroquinolin-2-yl)acetamide] gave an inhibition at 1 µM at RORγ LBD (1 μM compound) of 65%. Further, the inhibition at 10 µM at RORγ LBD (10 μM compound) is 99%. For the same compound, the results for the IC50 (at RORγ LBD; in experiment [1]) were more than 300 nM and 100 to 500 nM, respectively.

`CCS(=O)(=O)c1ccc(CC(=O)Nc2ccc3c(n2)CCC(C)(c2ccc(C)s2)C3=O)cc1` (stereo not shown) [Compound 45, 2-(4-(ethylsulfonyl)phenyl)-N-(6-methyl-6-(5-methylthiophen-2-yl)-5-oxo-5,6,7,8-tetrahydroquinolin-2-yl)acetamide] returned an inhibition at 1 µM on RORγ LBD (1 μM compound) of 66%. Besides, the inhibition at 10 µM at RORγ LBD (10 μM compound) turned out to be 73%. Moreover, the IC50 in experiment [1] was less than 100 nM.
